From patent US11470846B2, “Herbicidal pyridino-/pyrimidino-thiazoles” (SYNGENTA PARTICIPATIONS AG, priority 2014, dated 2022)

Experiments:
Type in all cases: in vivo
Avena fatua (AVEFA) [1] = experiment: Pre-emergence herbicidal activity; settings: pre-emergence application, 1000 g/Ha, evaluated after 13 days, scale 0-5
Procedure: (§1) B1 Pre-Emergence Herbicidal Activity
(§2) Seeds of a variety of test species were sown in standard soil in pots: Triticum aestivium (TRZAW), Oryza sativa (ORYSA), Avena fatua (AVEFA), Alopecurus myosuroides (ALOMY), Echinochloa crus-galli (ECHCG), Lolium perenne (LOLPE), Zea Mays (ZEAMX), Abutilon theophrasti (ABUTH), Amaranthus retroflexus (AMARE) and Setaria faberi (SETFA). After cultivation for one day (pre-emergence) under controlled conditions in a glasshouse (at 24/16° C., day/night; 14 hours light; 65% humidity), the plants were sprayed with an aqueous spray solution derived from the formulation of the technical active ingredient in acetone/water (50:50) solution containing 0.5% Tween 20 (polyoxyethelyene sorbitan monolaurate, CAS RN 9005-64-5). The test plants were then grown in a glasshouse under controlled conditions (at 24/16° C., day/night; 14 hours light; 65% humidity) and watered twice daily. After 13 days, the test was evaluated (5=total damage to plant; 0=no damage to plant).

Oryza sativa (ORYSA) [2] = experiment: Pre-emergence herbicidal activity; settings: pre-emergence application, 1000 g/Ha, evaluated after 13 days, scale 0-5
Procedure: as §1, §2

[3] = test system: Echinochloa crus-galli (ECHCG); experiment: Pre-emergence herbicidal activity; settings: pre-emergence application, 1000 g/Ha, evaluated after 13 days, scale 0-5; Table 5
Procedure: as §1, §2

[4] = test system: Alopecurus myosuroides (ALOMY); experiment: Pre-emergence herbicidal activity; settings: pre-emergence application, 1000 g/Ha, evaluated after 13 days, scale 0-5
Procedure: as §1, §2

Lolium perenne (LOLPE) [5] = experiment: Pre-emergence herbicidal activity; settings: pre-emergence application, 1000 g/Ha, evaluated after 13 days, scale 0-5; Table 5
Procedure: as §1, §2

[6] = test system: Triticum aestivium (TRZAW); experiment: Pre-emergence herbicidal activity; settings: pre-emergence application, 1000 g/Ha, evaluated after 13 days, scale 0-5
Procedure: as §1, §2

Avena fatua (AVEFA) [7] = experiment: Post-emergence herbicidal activity; settings: post-emergence application, 1000 g/Ha, evaluated after 13 days, scale 0-5
Procedure: (§3) B2 Post-Emergence Herbicidal Activity
(§4) Seeds of a variety of test species were sown in standard soil in pots: Triticum aestivium (TRZAW), Oryza sativa (ORYSA), Avena fatua (AVEFA), Alopecurus myosuroides (ALOMY), Echinochloa crus-galli (ECHCG), Lolium perenne (LOLPE), Zea Mays (ZEAMX), Abutilon theophrasti (ABUTH), Amaranthus retroflexus (AMARE) and Setaria faberi (SETFA). After 8 days cultivation (post-emergence) under controlled conditions in a glasshouse (at 24/16° C., day/night; 14 hours light; 65% humidity), the plants were sprayed with an aqueous spray solution derived from the formulation of the technical active ingredient in acetone/water (50:50) solution containing 0.5% Tween 20 (polyoxyethelyene sorbitan monolaurate, CAS RN 9005-64-5). The test plants were then grown in a glasshouse under controlled conditions (at 24/16° C., day/night; 14 hours light; 65% humidity) and watered twice daily. After 13 days, the test was evaluated (5=total damage to plant; 0=no damage to plant).

Oryza sativa (ORYSA) [8] = experiment: Post-emergence herbicidal activity; settings: post-emergence application, 1000 g/Ha, evaluated after 13 days, scale 0-5
Procedure: as §3, §4

[9] = test system: Echinochloa crus-galli (ECHCG); experiment: Post-emergence herbicidal activity; settings: post-emergence application, 1000 g/Ha, evaluated after 13 days, scale 0-5; Table 7
Procedure: as §3, §4

[10] = test system: Alopecurus myosuroides (ALOMY); experiment: Post-emergence herbicidal activity; settings: post-emergence application, 1000 g/Ha, evaluated after 13 days, scale 0-5
Procedure: as §3, §4

Lolium perenne (LOLPE) [11] = experiment: Post-emergence herbicidal activity; settings: post-emergence application, 1000 g/Ha, evaluated after 13 days, scale 0-5; Table 7
Procedure: as §3, §4

[12] = test system: Triticum aestivium (TRZAW); experiment: Post-emergence herbicidal activity; settings: post-emergence application, 1000 g/Ha, evaluated after 13 days, scale 0-5
Procedure: as §3, §4

In the case of `CN(C(=O)OC(C)(C)C)c1sc(-c2cccnc2)nc1Br` [Compound A30, tert-butyl N-[4-bromo-2-(3-pyridyl)thiazol-5-yl]-N-methyl-carbamate], the “Control of weed species, AVEFA (damage score)” value (“Control of weed species, AVEFA” below) (Avena fatua (AVEFA) [1]) is reported as 3, the “Control of weed species, ORYSA (damage score)” value (“Control of weed species, ORYSA” below) (Oryza sativa (ORYSA) [2]) is reported as 1 and the “Control of weed species, ECHCG (damage score)” value (“Control of weed species, ECHCG” below) [3] is reported as 4. The “Control of weed species, ALOMY (damage score)” value (“Control of weed species, ALOMY” below) [4] was 1, the “Control of weed species, LOLPE (damage score)” value (“Control of weed species, LOLPE” below) (Lolium perenne (LOLPE) [5]) was 2 and the “Control of weed species, TRZAW (damage score)” value (“Control of weed species, TRZAW” below) [6] was 0. The “Control of weed species, AVEFA” value (Avena fatua (AVEFA) [7]) was 4, the “Control of weed species, ORYSA” value (Oryza sativa (ORYSA) [8]) was 1 and the “Control of weed species, ECHCG” value [9] was 5. The “Control of weed species, ALOMY” value [10] was 1, the “Control of weed species, LOLPE” value (Lolium perenne (LOLPE) [11]) was 4 and the “Control of weed species, TRZAW” value [12] was 2.

`CN(C(=O)OC(C)(C)C)c1sc(-c2cccnc2)nc1C(F)(F)F` [Compound A25] was tested, and the “Control of weed species, AVEFA” value (Avena fatua (AVEFA) [1]) was 4, the “Control of weed species, ORYSA” value (Oryza sativa (ORYSA) [2]) was 1 and the “Control of weed species, ECHCG” value [3] was 4. For the same compound, the “Control of weed species, ALOMY” value [4] was 1, the “Control of weed species, LOLPE” value (Lolium perenne (LOLPE) [5]) was 3 and the “Control of weed species, TRZAW” value [6] was 0. For the same compound, the “Control of weed species, AVEFA” value (Avena fatua (AVEFA) [7]) was 4, the “Control of weed species, ORYSA” value (Oryza sativa (ORYSA) [8]) was 1 and the “Control of weed species, ECHCG” value [9] was 5. For the same compound, the “Control of weed species, ALOMY” value [10] was 1, the “Control of weed species, LOLPE” value (Lolium perenne (LOLPE) [11]) was 4 and the “Control of weed species, TRZAW” value [12] was 2.

For `COc1cncc(-c2nc(C)c(N(C)C(=O)OC(C)(C)C)s2)c1` [Compound A6], the “Control of weed species, AVEFA” value (Avena fatua (AVEFA) [1]) was 0, the “Control of weed species, ORYSA” value (Oryza sativa (ORYSA) [2]) was 1 and the “Control of weed species, ECHCG” value [3] was 2. For the same compound, the “Control of weed species, ALOMY” value [4] was 1, the “Control of weed species, LOLPE” value (Lolium perenne (LOLPE) [5]) was 1 and the “Control of weed species, TRZAW” value [6] was 0. The “Control of weed species, AVEFA” value (Avena fatua (AVEFA) [7]) was 2, the “Control of weed species, ORYSA” value (Oryza sativa (ORYSA) [8]) was 0 and the “Control of weed species, ECHCG” value [9] was 4. The “Control of weed species, ALOMY” value [10] was 1, the “Control of weed species, LOLPE” value (Lolium perenne (LOLPE) [11]) was 2 and the “Control of weed species, TRZAW” value [12] was 1.

For `Cc1nc(-c2cccnc2)sc1N(C)C(=O)SC(C)(C)C` [Compound A22, S-tert-butyl N-methyl-N-[4-methyl-2-(3-pyridyl)thiazol-5-yl]carbamothioate], the “Control of weed species, AVEFA” value (Avena fatua (AVEFA) [1]) was 0, the “Control of weed species, ORYSA” value (Oryza sativa (ORYSA) [2]) was 0 and the “Control of weed species, ECHCG” value [3] was 0. The “Control of weed species, ALOMY” value [4] was 0, the “Control of weed species, LOLPE” value (Lolium perenne (LOLPE) [5]) was 0 and the “Control of weed species, TRZAW” value [6] was 0. The “Control of weed species, AVEFA” value (Avena fatua (AVEFA) [7]) was 2, the “Control of weed species, ORYSA” value (Oryza sativa (ORYSA) [8]) was 0 and the “Control of weed species, ECHCG” value [9] was 2. The “Control of weed species, ALOMY” value [10] was 0, the “Control of weed species, LOLPE” value (Lolium perenne (LOLPE) [11]) was 2 and the “Control of weed species, TRZAW” value [12] was 0.

For `Cc1nc(-c2cccnc2)sc1N(C)C(=O)NOC(C)(C)C` [Compound A45, 3-tert-butoxy-1-methyl-1-(4-methyl-2-(3-pyridyl)thiazol-5-yl)urea], the “Control of weed species, AVEFA” value (Avena fatua (AVEFA) [1]) was 3, the “Control of weed species, ORYSA” value (Oryza sativa (ORYSA) [2]) was 2 and the “Control of weed species, ECHCG” value [3] was 3. For the same compound, the “Control of weed species, ALOMY” value [4] was 2, the “Control of weed species, LOLPE” value (Lolium perenne (LOLPE) [5]) was 2 and the “Control of weed species, TRZAW” value [6] was 1. The “Control of weed species, AVEFA” value (Avena fatua (AVEFA) [7]) was 5, the “Control of weed species, ORYSA” value (Oryza sativa (ORYSA) [8]) was 2 and the “Control of weed species, ECHCG” value [9] was 4. For the same compound, the “Control of weed species, ALOMY” value [10] was 1, the “Control of weed species, LOLPE” value (Lolium perenne (LOLPE) [11]) was 4 and the “Control of weed species, TRZAW” value [12] was 2.

With `Cc1nc(-c2cccnc2)sc1N(C)C(=O)Oc1ccc([N+](=O)[O-])cc1` [Compound A61, (4-nitrophenyl) N-methyl-N-[4-methyl-2-(3-pyridyl)thiazol-5-yl]carbamate] the “Control of weed species, AVEFA” value (Avena fatua (AVEFA) [7]) was 2, the “Control of weed species, ORYSA” value (Oryza sativa (ORYSA) [8]) was 0 and the “Control of weed species, ECHCG” value [9] was 1. For the same compound, the “Control of weed species, ALOMY” value [10] was 0, the “Control of weed species, LOLPE” value (Lolium perenne (LOLPE) [11]) was 1 and the “Control of weed species, TRZAW” value [12] was 1.

In the case of `Cc1nc(-c2cncc(F)c2)sc1NC(=O)OC(C)(C)C` [Compound A35, tert-butyl N-[2-(5-fluoro-3-pyridyl)-4-methyl-thiazol-5-yl]carbamate], the “Control of weed species, AVEFA” value (Avena fatua (AVEFA) [7]) is reported as 1, the “Control of weed species, ORYSA” value (Oryza sativa (ORYSA) [8]) is reported as 0 and the “Control of weed species, ECHCG” value [9] is reported as 2. The “Control of weed species, ALOMY” value [10] was 0, the “Control of weed species, LOLPE” value (Lolium perenne (LOLPE) [11]) was 0 and the “Control of weed species, TRZAW” value [12] was 1.
